In brackets after ≈: the same amount, converted by molar mass. Like-named read-outs stand apart in the source and are kept apart here. Each block holds one compound with its values, some of them ahead of it.
Legend:
[1] = tested on: SKOV-3 cells xenotransplant; test: Antineoplastic activity in Nu/Nu mice with subcutaneous SKOV-3 xenotransplant; type: in vivo; parameters: key to Vascularity of tumor lesion / Fibrosis of tumor lesion: +, present; +++, abundant
Description: Nu/Nu mice were used to determine the antineoplastic activity of RHTR (20 female, 25 ± 5 g weight, and 6-8 weeks old). Mice were maintained in sterile conditions (25 ± 1 °C, and 12 h light/dark cycles) and ad libitum access to food (LabDiet®, Richmond, IN, USA) or water in UPEAL (CINVESTAV-IPN). The Institutional Ethics Committee approved all procedures (No. 184-16), following the Official Mexican Regulations: NOM-062-ZOO-1999 [31] and the International Guidelines (see Appendix A, NC3Rs ARRIVE Guidelines Checklist). Mice were xenotransplanted subcutaneously on the right flank with 5 × 10^6 SKOV-3 cells. The development of tumor lesions was monitored for 28 days (≈50 mm^3). Four weeks post-xenotransplantation, rodents were treated daily with 200 mg/kg/i.p. of AE, AF02, or controls for another 28 days. Finally, each week, we evaluated (i) bodyweight with an electronic bascule (CS200, Ohaus®, Parsippany, NJ, USA) and (ii) tumoral lesions with a Vernier caliper (Truper®, Jilotepec, Edo. de México, M.X.). At the end of treatments, mice were anesthetized with 0.1575 mg/250 μL 1× PBS (v/v, i.p.) of pentobarbital sodium (PiSA®, Guadalajara, Jal., M.X.) for the subsequent analyses (Figure 5).
(§1) Computed axial tomography (CAT) was performed with a Somatom Emotion™ (Siemens™) with animals in supine decubitus, full-body, and craniocaudal directions. The sequences and parameters used in the study were modifications based on the ExtrHR protocol. Ultrasonography (USG) was performed in an ultrasound system (LogiQ™ P7, General Electric-Healthcare®, Chicago, IL, USA), with real-time image, skeletal muscle preset, and Doppler application. Determination of paraclinical and histopathological studies such as hematic biometry, blood chemistry, and pathological lesions in liver, kidneys, and tumor were performed according to the protocol described by Varela-Rodríguez et al..

[2] = Paraclinical studies (blood chemistry, hematic biometry) and bodyweight in treated Nu/Nu mice; type: in vivo; details: 28 days treatment
Description: Nu/Nu mice were used to determine the antineoplastic activity of RHTR (20 female, 25 ± 5 g weight, and 6-8 weeks old). […] Mice were xenotransplanted subcutaneously on the right flank with 5 × 10^6 SKOV-3 cells. […] Four weeks post-xenotransplantation, rodents were treated daily with 200 mg/kg/i.p. of AE, AF02, or controls for another 28 days. Finally, each week, we evaluated (i) bodyweight with an electronic bascule (CS200, Ohaus®, Parsippany, NJ, USA) and (ii) tumoral lesions with a Vernier caliper (Truper®, Jilotepec, Edo. de México, M.X.).
as §1

[3] = Morphometric analysis of liver and kidneys in treated Nu/Nu mice; type: in vivo
Description: as §1

[4] = tested on: SKOV-3 cells; test: MTT cell viability, dose-response curves 24 h; type: cell-based, human; details: Homo sapiens, SK-OV-3, MTT, 24 h, read-out: IC50 (half-maximal inhibitory concentration), SKOV-3
Description: (§2) Cultures (2 × 10^4 cells/well) were seeded with 200 μL of supplemented medium (Sigma®) in 96-well plates (Corning®, Corning, NY, USA) and incubated for 24 h. Cell treatments were 5-200 μg/mL of samples/controls for 24 h. At the end of the treatments, we added MTT (5 mg/mL, Sigma®) for 4 h of incubation, and optical density was measured at λ = 590 nm in a VariosKan® Flash (Thermo-Scientific®, Waltham, MA, USA). The half-maximal inhibitory concentration (IC50) was determined.

[5] = tested on: BEAS-2B cells; test: MTT cell viability, dose-response curves 24 h; type: cell-based; details: MTT; for IC50: Homo sapiens, BEAS-2B, read-out: IC50 (half-maximal inhibitory concentration), BEAS-2B
Description: as §2

[6] = tested on: CACO-2 cells; test: MTT cell viability, dose-response curves 24 h; type: cell-based; details: Homo sapiens, Caco-2, MTT, 24 h, read-out: IC50 (half-maximal inhibitory concentration), CACO-2
Description: as §2

[7] = tested on: CHO-K1 cells; test: MTT cell viability, dose-response curves 24 h; type: cell-based; details: MTT, 24 h; for IC50: Cricetulus griseus, CHO-K1, 24 h, read-out: IC50 (half-maximal inhibitory concentration), CHO-K1
Description: as §2

[8] = tested on: OVCAR-3 cells; test: MTT cell viability, dose-response curves 24 h; type: cell-based; details: Homo sapiens, OVCAR-3, MTT, 24 h, read-out: IC50 (half-maximal inhibitory concentration), OVCAR-3
Description: as §2

[9] = tested on: ovarian cancer tumoral lesions; parameters: method as in PMID 32276584; details: 50 mg/kg, peritumoral route; cited from earlier work
[10] = tested on: MCF-7; parameters: method as in PMID 12781329, PMID 18790750; details: MCF-7, 50 μM, G1 phase; cited from earlier work

SMILES: N.N.O=C([O-])C1(C(=O)[O-])CCC1.[Pt+2] [Carboplatin, carboplatin]
Fibrosis of tumor lesion ([1]; 1× PBS +): + | Vascularity of tumor lesion ([1]; 1× PBS +++): + | Morphology of tumor lesion ([1]; 1× PBS Cystic): Solid | necrosis percentage of tumor lesion (imaging) ([1]; Figure 3A, vehicle 35.16%): 5.19% | Tumor lesion weight ([1]; end of 28 days treatment, 1× PBS 0.34 ± 0.09): 0.14 ± 0.06 g | Tumor lesion larger diameter ([1]; end of 28 days treatment, 1× PBS 14.53 ± 2.4): 3.70 ± 0.26 mm | Tumor volume ([1]; end of 28 days treatment, 1× PBS 373.3 ± 18.1): 137.3 ± 18.6 * mm^3 | PCT (plateletcrit) ([2]; 1× PBS 0.55 ± 0.30): 0.55 ± 0.29 | Creatinine ([2]; 1× PBS 0.65 ± 0.2): 0.37 ± 0.26 mg/dL | Total bilirubin ([2]; 1× PBS 0.67 ± 0.16): 0.58 ± 0.2 mg/dL | Albumin ([2]; 1× PBS 1.36 ± 0.21): 1.33 ± 0.29 g/dL | Protein ([2]; 1× PBS 4.7 ± 0.56): 5.1 ± 1.46 g/dL | Erythrocytes ([2]; 1× PBS 7.92 ± 1.93): 7.81 ± 0.88 ×10^6/mm^3 | Hemoglobin ([2]; 1× PBS 14.4 ± 2.13): 13.1 ± 1.61 g/dL | ALT (GPT) ([2]; 1× PBS 40.75 ± 14.5): 64.4 ± 6.87 U/L | Hematocrit ([2]; 1× PBS 44.52 ± 2.17): 40.57 ± 4.16% | Urea ([2]; 1× PBS 47.9 ± 7.16): 59.4 ± 9.99 mg/dL | Alkaline phosphatase ([2]; 1× PBS 71 ± 10.36): 66.6 ± 15.6 U/L | Glucose ([2]; 1× PBS 78.3 ± 16.6): 107 ± 14.8 mg/dL | Cholesterol ([2]; 1× PBS 85.5 ± 13.4): 108.6 ± 19.4 mg/dL | Triglycerides ([2]; 1× PBS 87.6 ± 12.01): 103.7 ± 12.7 mg/dL | AST (GOT) ([2]; 1× PBS 149.8 ± 27.29): 162.9 ± 8.2 U/L | Kidneys weight ([3]; 1X PBS 0.38 ± 0.042): 0.40 ± 0.01 g | Liver weight ([3]; 1X PBS 1.53 ± 0.14): 1.80 ± 0.10 g | Kidneys larger diameter ([3]; 1X PBS 9.34 ± 0.67): 11.5 ± 0.7 mm | Liver larger diameter ([3]; 1X PBS 29.65 ± 2.22): 30.5 ± 2.2 mm

IC50 [4]: > 200 µg/mL | IC50 ([4]; value in brackets): > 1090 µM | IC50 [6]: 100 µg/mL | IC50 ([6]; value in brackets): 543 µM | IC50 [8]: > 200 µg/mL | IC50 ([8]; value in brackets): > 1090 µM
SMILES: COC(=O)c1cc(O)c(O)c(O)c1 [Compound 2, methyl 3,4,5-trihydroxybenzoate]
IC50 [5]: 200 µg/mL | IC50 ([5]; value in brackets): 1090 µM | IC50 [7]: 130 µg/mL | IC50 ([7]; value in brackets): 706 µM

IC50 [4]: 166 µg/mL | IC50 ([4]; value in brackets): 522 µM | IC50 [6]: 62 µg/mL | IC50 ([6]; value in brackets): 195 µM | IC50 [8]: 94 µg/mL | IC50 ([8]; value in brackets): 295 µM
SMILES: O=c1c(O)c(-c2cc(O)c(O)c(O)c2)oc2cc(O)cc(O)c12 [Compound 5, myricetin]
IC50 ([5]; value in brackets): 201 µM | IC50 (half-maximal inhibitory concentration), BEAS-2B [5]: 64 µg/mL (≈ 201 µM) | IC50 (half-maximal inhibitory concentration), BEAS-2B ([5]; listed as Myr): ~ 150 μg/mL | IC50 ([7]; value in brackets): 104 µM | IC50 (half-maximal inhibitory concentration), CHO-K1 [7]: 33 µg/mL (≈ 104 µM) | IC50 (half-maximal inhibitory concentration), CHO-K1 ([7]; listed as Myr): ~ 150 μg/mL | inhibition of tumoral lesions (of progression) [9]: 50%

SMILES: O=C(OC[C@H]1O[C@@H](OC(=O)c2cc(O)c(O)c(O)c2)[C@H](OC(=O)c2cc(O)c(O)c(O)c2)[C@@H](OC(=O)c2cc(O)c(O)c(O)c2)[C@@H]1OC(=O)c1cc(O)c(O)c(O)c1)c1cc(O)c(O)c(O)c1 [Compound 8, 1,2,3,4,6-pentakis-O-galloyl-β-D-glucose]
cell cycle effect [10]: cell cycle arrest

Reference: article PMC8540642, “Antineoplastic Activity of Rhus trilobata Nutt. (Anacardiaceae) against Ovarian Cancer and Identification of Active Metabolites in This Pathology” (Plants, 2021)
